Assay results taken from patent publication US8134015B2, “Compound inhibiting in vivo phosphorous transport and medicine containing the same” (Kyowa Hakko Kirin Co., Ltd., priority 2003, dated 2012).

target: T1, rat NaPi-2b (Rattus norvegicus, UniProt Q9JJ09); experiment: Sodium-dependent phosphate uptake of Xenopus oocytes which expressed NaPi-2b (32P); type: cell-based; conditions: Xenopus oocytes expressing rat NaPi-2b, 32P radioactive phosphorus; read-out: IC50 (phosphate uptake inhibitory activity)
T1 construct: expressed in transfected cells; host or cells: Xenopus oocytes injected with cRNA
T1 sequence (Q9JJ09 1-695): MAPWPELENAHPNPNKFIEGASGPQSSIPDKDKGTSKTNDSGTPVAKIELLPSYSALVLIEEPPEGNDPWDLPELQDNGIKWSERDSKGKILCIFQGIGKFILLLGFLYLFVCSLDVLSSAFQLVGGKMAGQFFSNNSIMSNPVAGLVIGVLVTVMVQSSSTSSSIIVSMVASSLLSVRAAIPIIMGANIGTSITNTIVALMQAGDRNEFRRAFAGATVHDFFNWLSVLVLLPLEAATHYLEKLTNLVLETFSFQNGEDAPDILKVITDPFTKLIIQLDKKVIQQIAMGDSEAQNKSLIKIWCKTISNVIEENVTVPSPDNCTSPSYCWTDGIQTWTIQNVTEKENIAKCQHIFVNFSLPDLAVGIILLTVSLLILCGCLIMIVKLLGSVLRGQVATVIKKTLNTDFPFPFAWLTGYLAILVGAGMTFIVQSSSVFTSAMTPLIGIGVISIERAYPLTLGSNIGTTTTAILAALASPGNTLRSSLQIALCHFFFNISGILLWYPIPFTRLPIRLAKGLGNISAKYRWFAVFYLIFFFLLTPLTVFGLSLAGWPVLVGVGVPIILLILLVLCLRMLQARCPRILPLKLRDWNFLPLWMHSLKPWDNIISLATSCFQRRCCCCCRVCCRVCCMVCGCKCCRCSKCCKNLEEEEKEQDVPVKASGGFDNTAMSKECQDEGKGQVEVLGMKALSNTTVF
How it was run: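 Inhibition at 300 μM and 100 μM was read off one inhibition curve of 32P phosphate uptake. Uptake was measured in Xenopus oocytes cultured 2 days after injection of cRNA for cloned rat NaPi-2b.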

Structure (SMILES)	IC50 [µM]
Cc1ccc(/C=N/NC(=O)c2cc(Br)ccc2NC(=O)c2cccs2)cc1 [Compound 160, Thiophene-2-carboxylic acid [4-bromo-2-(4-methyl-benzylidene-hydrazinocarbonyl)-phenyl]-amide]	0.93
CCN1CC(NCc2ccc(C(=O)Nc3ccc(Br)cc3C(=O)N/N=C/c3cccc(F)c3)cc2)CN1CC [Compound 752, N-[4-Bromo-2-(3-fluoro-benzylidene-hydrazinocarbonyl)-phenyl]-4-[(1,2-diethyl-pyrazolidin-4-ylamino)-methyl]-benzamide]	< 3
Cc1ccc(/C=N/NC(=O)c2c(NC(=O)c3cccc(CN(CC(C)O)CC(C)O)c3)sc3ccccc23)cc1C (stereo not shown) [Compound 792, 3-{[Bis-(2-hydroxy-propyl)-amino]-methyl}-N-[3-(3,4-dimethyl-benzylidene-hydrazinocarbonyl)-benzo[b]thiophen-2-yl]-benzamide]	1.26
COc1cc(OC)cc(C(=O)Nc2ccccc2C(=O)N/N=C/c2cccc(O)c2)c1 [Compound 58, N-[2-(3-Hydroxy-benzylidene-hydrazinocarbonyl)-phenyl]-3,5-dimethoxy-benzamide]	7.67
CCN(CCO)Cc1ccc(C(=O)Nc2ccc(Cl)cc2C(=O)N/N=C/c2ccc(Cl)c(C(F)(F)F)c2)cc1 [Compound 437, N-[4-Chloro-2-(4-chloro-3-trifluoromethyl-benzylidene-hydrazinocarbonyl)-phenyl]-4-{[ethyl-(2-hydroxy-ethyl)-amino]-methyl}-benzamide]	< 3
COc1ccc(C(=O)Nc2ccccc2C(=O)N/N=C/c2cc(C(F)(F)F)cc(C(F)(F)F)c2)cc1OC [Compound 8, N-[2-(3,5-Bis-trifluoromethyl-benzylidene-hydrazinocarbonyl)-phenyl]-3,4-dimethoxy-benzamide]	1.72
O=C(Nc1ccc(Br)cc1C(=O)N/N=C/c1cccc(F)c1)c1ccc(CSCCCO)cc1 [Compound 277, N-[4-Bromo-2-(3-fluoro-benzylidene-hydrazinocarbonyl)-phenyl]-4-(3-hydroxy-propylsulfanylmethyl)-benzamide]	1.6
Cc1ccc(/C=N/NC(=O)c2c(NC(=O)c3cccc(CN4CCC(N5CCCCC5)CC4)c3)sc3c2CCCC3)cc1 [Compound 616, 3-[1,4′]Bipiperidinyl-1′-ylmethyl-N-[3-(4-methyl-benzylidene-hydrazinocarbonyl)-4,5,6,7-tetrahydro-benzo[b]thiophen-2-yl]-benzamide]	13.9
Cc1ccc(/C=N/NC(=O)c2cc(Br)ccc2NC(=O)c2ccc(CN(C)CC(O)c3ccc(O)cc3)cc2)cc1C (stereo not shown) [Compound 724, N-[4-Bromo-2-(3,4-dimethyl-benzylidene-hydrazinocarbonyl)-phenyl]-4-({[2-hydroxy-2-(4-hydroxy-phenyl)-ethyl]-methyl-amino}-methyl)-benzamide]	17.1
CN(Cc1ccc(C(=O)Nc2ccc(Br)cc2C(=O)N/N=C/c2cccc(F)c2)cc1)CC(O)c1ccc(O)cc1 (stereo not shown) [Compound 725, N-[4-Bromo-2-(3-fluoro-benzylidene-hydrazinocarbonyl)-phenyl]-4-({[2-hydroxy-2-(4-hydroxy-phenyl)-ethyl]-methyl-amino}-methyl)-benzamide]	69.4
Cc1ccc(/C=N/NC(=O)c2c(C)csc2NC(=O)c2cccc(CN3CCC(CO)CC3)c2)cc1 [Compound 600, 3-(4-Hydroxymethyl-piperidin-1-ylmethyl)-N-[4-methyl-3-(4-methyl-benzylidene-hydrazinocarbonyl)-thiophen-2-yl]-benzamide]	3.84
COc1ccc(/C=N/NC(=O)c2cc(N3CCOCC3)ccc2NC(=O)c2cccc(CSCCO)c2)cc1 [Compound 1066, 3-(2-Hydroxy-ethylsulfanylmethyl)-N-[2-(4-methoxy-benzylidene-hydrazinocarbonyl)-4-morpholin-4-yl-phenyl]-benzamide]	2.69
COc1ccc(C(=O)Nc2ccccc2C(=O)N/N=C/c2ccccc2Br)cc1OC [Compound 10, N-[2-(2-Bromo-benzylidene-hydrazinocarbonyl)-phenyl]-3,4-dimethoxy-benzamide]	26.1
Cc1ccc(/C=N/NC(=O)c2c(NC(=O)c3cccc(CN4CCN(CCO)CC4)c3)sc3c2CCCC3)cc1C [Compound 621, N-[3-(3,4-Dimethyl-benzylidene-hydrazinocarbonyl)-4,5,6,7-tetrahydro-benzo[b]thiophen-2-yl]-3-[4-(2-hydroxy-ethyl)-piperazin-1-ylmethyl]-benzamide]	< 3
CC(O)CN(Cc1ccc(C(=O)Nc2ccc(Br)cc2C(=O)N/N=C/c2ccc(Cl)c(C(F)(F)F)c2)cc1)CC(C)O (stereo not shown) [Compound 721, 4-{[Bis-(2-hydroxy-propyl)-amino]-methyl}-N-[4-bromo-2-(4-chloro-3-trifluoromethyl-benzylidene-hydrazinocarbonyl)-phenyl]-benzamide]	22.3
O=C(Nc1sc2c(c1C(=O)N/N=C/c1ccc(Cl)c(C(F)(F)F)c1)CCC2)c1cccc(CN2CCC(CO)CC2)c1 [Compound 820, N-[3-(4-Chloro-3-trifluoromethyl-benzylidene-hydrazinocarbonyl)-5,6-dihydro-4H-cyclopenta[b]thiophen-2-yl]-3-(4-hydroxymethyl-piperidin-1-ylmethyl)-benzamide]	17.9
CCN(CC)CCN(C)Cc1cccc(C(=O)Nc2sc3c(c2C(=O)N/N=C/c2ccc(C)cc2)CCCC3)c1 [Compound 610, 3-{[(2-Diethylamino-ethyl)-methyl-amino]-methyl}-N-[3-(4-methyl-benzylidene-hydrazinocarbonyl)-4,5,6,7-tetrahydro-benzo-[b]thiophen-2-yl]-benzamide]	1.82
COc1ccc(C(=O)Nc2ccc(Cl)cc2C(=O)N/N=C/c2cccnc2)cc1OC [Compound 111, N-[4-Chloro-2-(pyridin-3-ylmethylene-hydrazinocarbonyl)-phenyl]-3,4-dimethoxy-benzamide]	9.12

same assay, conditions: phosphate uptake, oocytes expressing rat NaPi-2b; 300 μM, determined from inhibition curve

Structure (SMILES)	inhibition at 300 µM [%]
Cc1ccc(/C=N/NC(=O)c2scc(C)c2NC(=O)c2cccc(CSc3nc[nH]n3)c2)cc1C [Compound 523, N-[2-(3,4-Dimethyl-benzylidene-hydrazinocarbonyl)-4-methyl-thiophen-3-yl]-3-(1H-[1,2,4]triazol-3-ylsulfanylmethyl)-benzamide]	50.1
CN(CCCCCCN(C)Cc1cccc(C(=O)Nc2ccc(Cl)cc2C(=O)N/N=C/c2cccc(F)c2)c1)Cc1cccc(C(=O)Nc2ccc(Cl)cc2C(=O)N/N=C/c2cccc(F)c2)c1 [Compound 704, N1-[4-Chloro-2-({2-[(E)-1-(3-fluorophenyl)methylidene]hydrazino}carbonyl}phenyl}-3-{[{6-[(3-{[4-chloro-2-({2-[(E)-1-(3-fluorophenyl)methylidene]hydrazino}carbonyl}-anilino}carbonyl}benzyl}(methyl)amino)hexyl)(methyl)amino]methyl]-benzamide]	46.6
CC(O)CN(Cc1cccc(C(=O)Nc2ncccc2C(=O)N/N=C/c2cccc(F)c2)c1)CC(C)O (stereo not shown) [Compound 964, 3-{[Bis-(2-hydroxy-propyl)-amino]-methyl}-N-[3-(3-fluoro-benzylidene-hydrazinocarbonyl)-pyridin-2-yl]-benzamide]	67.5
CCOCCN(CCOCC)Cc1ccc(C(=O)Nc2ccc(Br)cc2C(=O)N/N=C/c2ccc(C)cc2)cc1 [Compound 734, 4-{[Bis-(2-ethoxy-ethyl)-amino]-methyl}-N-[4-bromo-2-(4-methyl-benzylidene-hydrazinocarbonyl)-phenyl]-benzamide]	64.9
